Measurements as given in patent US20200255487A1, “A Cell-Based Seeding Assay for Huntingtin Aggregation” (THE REGENTS OF THE UNIVERSITY OF CALIFORNIA, priority 2017, published 2020).

Tested on: HTT-ΔN17-46Q-GFP
Assay: cell-based HTT seeding assay (ΔN17-1E cells)
Design: species or system human
Conditions: for induction of intracellular HTT-ΔN17-46Q-GFP aggregation by extracellularly applied seeds: ΔN17-1E (HEK293) cells, substance applied as seed, FIG. 4
Text: Described herein is the development of a cell-based HTT seeding assay. A DNA construct encoding Exon1 of mutant human HTT with a 46 polyQ repeat was designed (FIG. 1C). This mutant HTT was engineered to delete amino acid residues 2-16 and was fused with a green fluorescent protein (GFP) at its C-terminus, named HTT-ΔN17-46Q-GFP hereafter. The HTT-ΔN17-46Q-GFP was then cloned into a pcDNA3 vector and transfected into HEK293 cells. Clones of stably transfected cells expressing HTT-ΔN17-46Q-GFP were selected to generate individual cell lines. Expression of the transgene in the cell lines was characterized to confirm its morphology, expression level and subcellular localization. Line 1E, named ΔN17-1E cells, was selected based on it moderate transgene expression with minimal protein aggregates at the baseline. Based on this cell line, a cell-based HTT seeding assay was developed. Extracellular application of preformed HTT aggregates or biosamples from HD patients as “seeds”, to ΔN17-1E cells could induce intracellular aggregation of HTT-ΔN17-46Q-GFP proteins (FIG. 1 through FIG. 3). This seeding-induced aggregation event is similar to in vitro HTT aggregation, which preformed aggregates, or seeds, nucleates and facilitates the aggregation of HTT exon 1 monomers. Moreover, this activity is specific to utilizing aggregates of polyQ proteins since neither aggregates of β-amyloid and Tau nor biosamples from AD and PD patients could elicit HTT-ΔN17-46Q-GFP aggregation (FIG. 4). The level of induced aggregates positively correlates with the amount of recombinant seeds added. Importantly, the seedability of the biosamples also correlates with the disease stage of the patients. Currently, the assay has been optimized to be performed in a high-throughput format, making it more capable with large quantity of samples. Thus, this cell-based seeding assay could be extremely useful for detecting seedible species in the biosamples, which is shown by us to increase as the disease progressing, and thus could be used as a biomarker for HD diagnosis and clinical trials, as well as for drug discovery.

Substance	HTT-ΔN17-46Q-GFP aggregation induced by HD CSF, with overexpression (ΔN17 cells, overexpression by transit transfection, induced by HD CSF, FIG. 10)	HTT-ΔN17-46Q-GFP aggregation induced by preformed mHTT-exon1 seeds, with overexpression (ΔN17 cells, overexpression by transit transfection, induced by preformed mHTT-exon1 seeds, FIG. 10)	induction of intracellular HTT-ΔN17-46Q-GFP aggregation by extracellularly applied seeds
DNAJB6: DNAJB6 of the Hsp40 family, overexpressed in ΔN17 cells by transit transfection	dramatically reduced	dramatically reduced	
phosphorylated tau: phosphorylated tau used as non-HTT seed control [reference compound]			did not elicit the aggregation
fibrillar Aβ: fibrillar Aβ used as non-HTT seed control [reference compound]			did not elicit the aggregation
